The record followed here is ChEMBL document CHEMBL4130363, “Synthesis and pharmacological evaluation of benzamide derivatives as potent and selective sigma-1 protein ligands” (Eur J Med Chem, 2017).

The target in assay [1] is D(2) dopamine receptor (Homo sapiens) (UniProt P14416). Nature of the assay: Agonist activity at recombinant human dopamine D2L receptor at 10 uM by GTPgamma[35S] binding-based assay relative to agonist.
In assay [2] the target is 5-hydroxytryptamine receptor 5A (Homo sapiens) (UniProt P47898). Nature of the assay: Agonist activity at recombinant human 5-HT5A at 10 uM by aequorin reporter based assay relative to agonist. Type of assay: functional.
Sequence of 5-hydroxytryptamine receptor 5A (Homo sapiens) (P47898 whole entry): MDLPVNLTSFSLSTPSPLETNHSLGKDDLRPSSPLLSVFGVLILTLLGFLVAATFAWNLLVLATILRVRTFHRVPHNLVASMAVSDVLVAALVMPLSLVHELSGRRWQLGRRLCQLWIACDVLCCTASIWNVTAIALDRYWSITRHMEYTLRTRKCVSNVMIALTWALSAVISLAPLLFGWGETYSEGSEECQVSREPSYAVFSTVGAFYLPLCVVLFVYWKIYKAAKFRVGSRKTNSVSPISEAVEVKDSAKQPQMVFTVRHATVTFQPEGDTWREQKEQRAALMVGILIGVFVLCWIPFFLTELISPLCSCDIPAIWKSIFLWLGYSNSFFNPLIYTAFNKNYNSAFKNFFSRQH
For assay [3], the target named is T1, Muscarinic acetylcholine receptor M2 (Homo sapiens) (UniProt P08172).
T1 sequence (whole entry): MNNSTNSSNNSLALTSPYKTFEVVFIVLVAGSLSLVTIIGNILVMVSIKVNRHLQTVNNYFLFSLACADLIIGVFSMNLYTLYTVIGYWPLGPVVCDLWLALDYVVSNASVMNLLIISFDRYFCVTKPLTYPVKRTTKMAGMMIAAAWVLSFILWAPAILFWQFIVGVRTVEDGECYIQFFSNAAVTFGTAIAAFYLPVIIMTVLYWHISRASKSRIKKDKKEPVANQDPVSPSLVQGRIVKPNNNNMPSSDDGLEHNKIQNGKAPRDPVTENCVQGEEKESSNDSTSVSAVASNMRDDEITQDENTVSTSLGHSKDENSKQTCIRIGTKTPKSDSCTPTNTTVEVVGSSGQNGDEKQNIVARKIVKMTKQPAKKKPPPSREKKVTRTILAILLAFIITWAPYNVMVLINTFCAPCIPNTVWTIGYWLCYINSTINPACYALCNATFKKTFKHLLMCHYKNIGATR
Nature of the assay: Antagonist activity at human muscarinic M2 receptor assessed as inhibition of agonist-induced effect at 10 uM by GTPgamma[35S] binding-based assay. Format: functional.

For assay [4], the target named is 5-hydroxytryptamine receptor 2B (Homo sapiens) (UniProt P41595). Nature of the assay: Antagonist activity at recombinant human 5-HT2B assessed as inhibition of agonist-induced effect at 10 uM by aequorin reporter based assay. Type of assay: functional.
Sequence of 5-hydroxytryptamine receptor 2B (Homo sapiens) (P41595 whole entry): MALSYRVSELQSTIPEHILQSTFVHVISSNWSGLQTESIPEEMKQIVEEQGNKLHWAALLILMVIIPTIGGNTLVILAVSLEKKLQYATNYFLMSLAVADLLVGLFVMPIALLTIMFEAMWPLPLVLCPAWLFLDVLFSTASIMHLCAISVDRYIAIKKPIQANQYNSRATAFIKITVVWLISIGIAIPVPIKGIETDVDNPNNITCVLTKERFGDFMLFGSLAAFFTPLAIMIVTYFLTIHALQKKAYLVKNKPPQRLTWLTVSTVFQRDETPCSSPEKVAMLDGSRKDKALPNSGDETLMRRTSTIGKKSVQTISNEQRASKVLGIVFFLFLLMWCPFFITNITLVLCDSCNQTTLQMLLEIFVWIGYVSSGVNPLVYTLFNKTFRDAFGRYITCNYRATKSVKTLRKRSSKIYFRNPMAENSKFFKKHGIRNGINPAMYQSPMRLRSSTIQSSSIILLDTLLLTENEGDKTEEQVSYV
The target of assay [5] is T2, Adenosine receptor A3 (Homo sapiens) (UniProt P0DMS8).
T2 sequence (whole entry): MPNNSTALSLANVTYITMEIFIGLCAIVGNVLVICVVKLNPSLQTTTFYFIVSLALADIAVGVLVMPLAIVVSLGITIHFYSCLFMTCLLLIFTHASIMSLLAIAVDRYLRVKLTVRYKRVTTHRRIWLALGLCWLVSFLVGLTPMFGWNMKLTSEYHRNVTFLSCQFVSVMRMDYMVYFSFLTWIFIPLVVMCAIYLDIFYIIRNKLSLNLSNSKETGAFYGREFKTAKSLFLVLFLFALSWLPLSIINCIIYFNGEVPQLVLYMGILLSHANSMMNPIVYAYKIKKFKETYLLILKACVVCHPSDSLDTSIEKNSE
Nature of the assay: Agonist activity at recombinant human adenosine A3 receptor […] at 10 uM by HTRF assay relative to agonist. Type of assay: functional.

The target of assay [6] is Somatostatin receptor type 4 (Homo sapiens) (UniProt P31391). Briefly: Agonist activity at recombinant human somatostatin receptor 4 at 10 uM by GTPgamma[35S] binding-based assay relative to agonist. Type of assay: functional.
Sequence of Somatostatin receptor type 4 (Homo sapiens) (P31391 whole entry): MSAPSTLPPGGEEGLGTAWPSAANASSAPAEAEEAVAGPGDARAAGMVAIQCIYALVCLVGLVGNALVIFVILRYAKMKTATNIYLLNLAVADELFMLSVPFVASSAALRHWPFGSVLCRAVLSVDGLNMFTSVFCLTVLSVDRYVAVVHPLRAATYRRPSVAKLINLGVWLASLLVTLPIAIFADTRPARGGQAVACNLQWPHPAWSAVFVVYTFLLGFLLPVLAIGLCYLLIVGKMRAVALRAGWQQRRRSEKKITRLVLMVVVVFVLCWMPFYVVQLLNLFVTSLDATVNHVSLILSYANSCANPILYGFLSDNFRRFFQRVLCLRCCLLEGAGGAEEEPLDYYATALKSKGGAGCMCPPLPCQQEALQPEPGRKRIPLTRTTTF
Assay [7] has as its target Adenosine receptor A2a (Homo sapiens) (UniProt P29274). Briefly: Antagonist activity at recombinant human adenosine A2A receptor assessed as inhibition of agonist-induced cAMP induction at 10 uM by HTRF assay. Type of assay: functional.
Assay [8] concerns the target 5-hydroxytryptamine receptor 6 (Homo sapiens) (UniProt P50406). Nature of the assay: Agonist activity at recombinant human 5-HT6R assessed as induction of cAMP levels at 10 uM by HTRF assay relative to agonist. Format: functional.
Assay [9] deals with Muscarinic acetylcholine receptor M3 (Homo sapiens) (UniProt P20309). Briefly: Antagonist activity at recombinant human muscarinic M3 receptor assessed as inhibition of agonist-induced effect at 10 uM by aequorin reporter based assay. Format: functional.
Sequence of Muscarinic acetylcholine receptor M3 (Homo sapiens) (P20309 whole entry, looked up): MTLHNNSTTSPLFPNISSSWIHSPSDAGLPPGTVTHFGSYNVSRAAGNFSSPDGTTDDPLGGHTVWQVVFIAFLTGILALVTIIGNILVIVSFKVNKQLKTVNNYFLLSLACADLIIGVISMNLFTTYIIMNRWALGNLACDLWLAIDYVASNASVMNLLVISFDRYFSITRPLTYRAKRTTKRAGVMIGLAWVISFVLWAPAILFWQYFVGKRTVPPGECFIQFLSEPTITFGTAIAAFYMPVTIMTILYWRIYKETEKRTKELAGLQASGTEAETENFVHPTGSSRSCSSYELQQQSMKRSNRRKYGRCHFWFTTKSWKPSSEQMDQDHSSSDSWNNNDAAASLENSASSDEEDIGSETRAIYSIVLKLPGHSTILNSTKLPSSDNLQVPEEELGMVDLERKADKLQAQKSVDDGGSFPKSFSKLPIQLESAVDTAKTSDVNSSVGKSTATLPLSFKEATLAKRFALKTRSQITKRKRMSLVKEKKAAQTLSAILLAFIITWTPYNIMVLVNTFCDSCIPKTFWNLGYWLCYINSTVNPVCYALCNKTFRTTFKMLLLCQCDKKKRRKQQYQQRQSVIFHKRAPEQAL
Assay [10] deals with 5-hydroxytryptamine receptor 2A (Homo sapiens) (UniProt P28223). Nature of the assay: Agonist activity at recombinant human 5-HT2A at 10 uM by aequorin reporter based assay relative to agonist. Type of assay: functional.
Sequence of 5-hydroxytryptamine receptor 2A (Homo sapiens) (P28223 whole entry): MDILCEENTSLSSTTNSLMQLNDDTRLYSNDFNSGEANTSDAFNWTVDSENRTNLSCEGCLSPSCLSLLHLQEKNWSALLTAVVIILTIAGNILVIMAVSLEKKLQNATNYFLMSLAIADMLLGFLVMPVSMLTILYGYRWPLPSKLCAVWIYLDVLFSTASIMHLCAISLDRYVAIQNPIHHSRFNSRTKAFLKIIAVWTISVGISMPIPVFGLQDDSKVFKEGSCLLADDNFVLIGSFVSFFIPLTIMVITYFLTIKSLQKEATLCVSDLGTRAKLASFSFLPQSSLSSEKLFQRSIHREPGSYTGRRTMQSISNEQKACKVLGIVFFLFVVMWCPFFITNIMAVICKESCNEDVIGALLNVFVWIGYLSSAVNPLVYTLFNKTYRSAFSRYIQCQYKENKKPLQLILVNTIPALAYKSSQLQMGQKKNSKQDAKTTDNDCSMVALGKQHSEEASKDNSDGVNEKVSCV
In assay [11] the target is Kappa-type opioid receptor (Homo sapiens) (UniProt P41145). Briefly: Agonist activity at recombinant human kappa-type opioid receptor at 10 uM by GTPgamma[35S] binding-based assay relative to agonist. Format: functional.
Sequence of Kappa-type opioid receptor (Homo sapiens) (P41145 whole entry): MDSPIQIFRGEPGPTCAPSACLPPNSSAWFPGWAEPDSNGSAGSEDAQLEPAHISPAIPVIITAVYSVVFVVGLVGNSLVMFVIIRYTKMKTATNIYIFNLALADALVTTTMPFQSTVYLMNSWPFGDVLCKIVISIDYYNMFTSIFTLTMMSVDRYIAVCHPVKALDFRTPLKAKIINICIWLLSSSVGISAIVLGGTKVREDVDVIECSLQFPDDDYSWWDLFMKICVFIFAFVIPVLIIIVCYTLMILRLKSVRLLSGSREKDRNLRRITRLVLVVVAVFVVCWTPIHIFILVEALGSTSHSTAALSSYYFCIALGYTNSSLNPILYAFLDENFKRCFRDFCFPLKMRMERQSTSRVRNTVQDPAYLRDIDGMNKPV
Assay [12] concerns the target T3, Alpha-1B adrenergic receptor (Homo sapiens) (UniProt P35368).
T3 sequence (whole entry): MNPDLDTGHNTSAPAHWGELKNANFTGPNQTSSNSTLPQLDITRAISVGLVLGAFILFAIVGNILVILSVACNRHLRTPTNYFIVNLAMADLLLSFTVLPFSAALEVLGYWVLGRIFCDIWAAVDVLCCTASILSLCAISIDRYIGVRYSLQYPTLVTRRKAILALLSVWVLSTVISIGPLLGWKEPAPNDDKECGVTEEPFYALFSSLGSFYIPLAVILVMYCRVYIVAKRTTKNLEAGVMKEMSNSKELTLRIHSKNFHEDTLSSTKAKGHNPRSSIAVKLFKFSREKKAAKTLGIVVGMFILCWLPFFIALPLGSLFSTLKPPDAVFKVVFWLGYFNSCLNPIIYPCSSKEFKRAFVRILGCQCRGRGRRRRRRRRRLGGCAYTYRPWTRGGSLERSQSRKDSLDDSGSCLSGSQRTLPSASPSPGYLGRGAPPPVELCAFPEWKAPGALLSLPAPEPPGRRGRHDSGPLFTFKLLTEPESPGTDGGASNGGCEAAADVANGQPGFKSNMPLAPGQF
Nature of the assay: Agonist activity at recombinant human alpha-1b adrenergic receptor […] at 10 uM by aequorin reporter based assay relative to agonist. Format: functional.

Assay [13] concerns the target T4, Muscarinic acetylcholine receptor M4 (Homo sapiens) (UniProt P08173).
T4 sequence (whole entry): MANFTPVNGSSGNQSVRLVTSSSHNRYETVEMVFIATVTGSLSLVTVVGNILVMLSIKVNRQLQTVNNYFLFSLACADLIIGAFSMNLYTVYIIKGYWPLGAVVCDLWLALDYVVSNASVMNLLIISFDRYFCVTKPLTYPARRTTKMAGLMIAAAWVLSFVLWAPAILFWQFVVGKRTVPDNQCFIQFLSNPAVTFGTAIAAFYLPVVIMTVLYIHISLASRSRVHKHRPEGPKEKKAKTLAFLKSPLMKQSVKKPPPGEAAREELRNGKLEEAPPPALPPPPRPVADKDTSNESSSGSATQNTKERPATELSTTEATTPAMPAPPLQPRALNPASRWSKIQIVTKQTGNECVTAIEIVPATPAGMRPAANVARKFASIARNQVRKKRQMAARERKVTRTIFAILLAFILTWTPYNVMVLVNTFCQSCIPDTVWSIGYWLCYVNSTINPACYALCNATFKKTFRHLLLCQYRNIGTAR
Briefly: Antagonist activity at human muscarinic M4 receptor assessed as inhibition of agonist-induced effect at 10 uM by GTPgamma[35S] binding-based assay. Type of assay: functional.

Assay [14] concerns the target Substance-P receptor (Homo sapiens) (UniProt P25103). Nature of the assay: Antagonist activity at recombinant human NK1R assessed as inhibition of agonist-induced effect at 10 uM by aequorin reporter based assay. Format: functional.
Assay [15] concerns the target T4, Muscarinic acetylcholine receptor M4 (Homo sapiens). Nature of the assay: Agonist activity at recombinant human muscarinic M4 receptor at 10 uM by GTPgamma[35S] binding-based assay relative to agonist. Format: functional.

Sequence of D(2) dopamine receptor (Homo sapiens) (P14416 whole entry): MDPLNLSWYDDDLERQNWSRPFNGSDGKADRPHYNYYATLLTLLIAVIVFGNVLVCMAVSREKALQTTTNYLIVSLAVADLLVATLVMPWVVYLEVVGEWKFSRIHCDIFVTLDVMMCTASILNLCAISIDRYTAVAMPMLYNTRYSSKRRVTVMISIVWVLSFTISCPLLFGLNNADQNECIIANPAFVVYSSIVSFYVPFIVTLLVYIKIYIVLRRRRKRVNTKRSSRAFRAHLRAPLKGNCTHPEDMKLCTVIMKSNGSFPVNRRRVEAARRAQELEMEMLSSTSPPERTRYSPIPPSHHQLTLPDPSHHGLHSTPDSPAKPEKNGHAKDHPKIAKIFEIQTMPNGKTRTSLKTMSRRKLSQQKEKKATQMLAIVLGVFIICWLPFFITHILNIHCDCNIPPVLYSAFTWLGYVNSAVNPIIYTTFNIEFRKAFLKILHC
Sequence of Substance-P receptor (Homo sapiens) (P25103 whole entry): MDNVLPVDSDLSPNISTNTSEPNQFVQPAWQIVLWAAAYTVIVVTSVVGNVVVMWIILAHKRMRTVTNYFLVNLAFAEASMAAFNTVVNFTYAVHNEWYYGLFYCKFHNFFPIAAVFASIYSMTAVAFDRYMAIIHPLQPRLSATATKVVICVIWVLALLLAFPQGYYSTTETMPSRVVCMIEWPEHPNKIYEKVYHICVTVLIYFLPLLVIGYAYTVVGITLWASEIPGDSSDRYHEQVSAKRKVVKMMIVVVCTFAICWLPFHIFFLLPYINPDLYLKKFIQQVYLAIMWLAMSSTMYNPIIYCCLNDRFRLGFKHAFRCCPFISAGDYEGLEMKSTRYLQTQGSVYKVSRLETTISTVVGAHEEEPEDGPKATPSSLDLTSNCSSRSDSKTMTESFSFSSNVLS
Sequence of Adenosine receptor A2a (Homo sapiens) (P29274 whole entry): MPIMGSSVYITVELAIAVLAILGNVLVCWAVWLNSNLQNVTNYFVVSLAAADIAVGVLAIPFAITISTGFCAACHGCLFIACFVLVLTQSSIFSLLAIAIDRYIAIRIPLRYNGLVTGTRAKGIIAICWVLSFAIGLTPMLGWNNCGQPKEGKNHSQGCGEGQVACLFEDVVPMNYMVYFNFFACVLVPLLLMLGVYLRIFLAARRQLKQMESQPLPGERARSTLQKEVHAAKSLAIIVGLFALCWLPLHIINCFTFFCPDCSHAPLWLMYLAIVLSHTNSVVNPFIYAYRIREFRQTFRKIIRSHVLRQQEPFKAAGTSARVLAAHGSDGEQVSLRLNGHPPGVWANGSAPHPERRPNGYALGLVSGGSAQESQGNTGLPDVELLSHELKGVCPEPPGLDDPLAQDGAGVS
Sequence of 5-hydroxytryptamine receptor 6 (Homo sapiens) (P50406 whole entry): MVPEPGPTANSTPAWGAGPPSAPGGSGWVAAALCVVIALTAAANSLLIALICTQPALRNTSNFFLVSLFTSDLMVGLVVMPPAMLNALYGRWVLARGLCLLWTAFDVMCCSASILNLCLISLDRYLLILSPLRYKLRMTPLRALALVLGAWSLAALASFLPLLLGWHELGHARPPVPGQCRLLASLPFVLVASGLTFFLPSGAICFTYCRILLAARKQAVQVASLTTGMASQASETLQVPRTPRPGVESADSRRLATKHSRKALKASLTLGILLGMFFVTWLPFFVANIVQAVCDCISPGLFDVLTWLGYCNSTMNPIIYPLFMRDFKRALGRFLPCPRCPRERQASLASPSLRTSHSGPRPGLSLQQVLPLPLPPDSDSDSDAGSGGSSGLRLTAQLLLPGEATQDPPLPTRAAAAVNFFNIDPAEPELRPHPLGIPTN

For `CN(CCNC(=O)c1ccc(C#N)cc1)Cc1ccccc1`, the Activity was -23% in assay [1]; -7% in assay [2]; 0% in assay [5]; -1% in assay [6]; -9% in assay [8]; 0% in [10]. Besides, the Activity in assay [11] is 5%; in assay [12], 0%; in [15], -1%. The inhibition in assay [3] was 26%; in [4] it was 16%; in [7] it was -7%; in assay [9], 17%; in assay [13] it was 25%; in [14], 14%.
In the case of `CN(CCCNC(=O)c1ccc(Cl)cc1)CCc1ccccc1`, the Activity in assay [1] was 25%; in assay [2] it was 0%; in assay [5] it was -6%; in [6] it was 15%; in assay [8], 16%; in assay [10], 18%. The Activity in assay [11] was -1%; in assay [12] it was 0%; in assay [15], -8%. Moreover, the inhibition was 54% in [3]; 92% in [4]; -5% in assay [7]; 40% in assay [9]; 18% in assay [13]; 41% in assay [14].
In the case of `CN(CCNC(=O)c1ccc(Cl)cc1)Cc1ccccc1`, the Activity in assay [1] was -2%; in assay [2], -1%; in [5] it was -2%; in assay [6], 1%; in [8], 27%; in assay [10], 16%. Moreover, the Activity in assay [11] was 5%; in assay [12] it was -1%; in assay [15], -4%. The inhibition in [3] was 28%; in assay [4], 66%; in assay [7], -4%; in assay [9], 35%; in assay [13] it was 13%; in [14], 22%.
With `COc1cccc(C(=O)NCCCN(C)Cc2ccccc2)c1`, the Activity in assay [1] was 16%; in assay [2], -3%; in [5], -3%; in assay [6], -4%; in assay [8], -2%; in [10], 1%. Besides, the Activity in assay [11] was 7%; in assay [12] it was 0%; in assay [15] it was -2%. Also, the inhibition in assay [3] was 26%; in assay [4], 26%; in assay [7] it was -10%; in [9], 2%; in [13], 21%; in [14] it was 10%.
